Results: US12319641B2, “Lobaric acid derivative having PTP-1B inhibitory activity, preparation method therefor and use thereof” (SNBIOSCIENCE INC., priority 2019, dated 2025)
Read-outs that look alike come from different tables or passages of the source.

What was measured:
[1] = test system: db/db mice (type 2 diabetes model animal); experiment: Blood glucose after daily oral administration in diabetic disease model animals; assay type: in vivo; details: for antidiabetic effects by oral administration: diabetic disease model animals
Description: To more accurately measure antidiabetic effects of dimethyl lobamide, 200 μl of PBS as a control and 50 mg/kg of dimethyl lobamide compound as an experimental group were orally administered daily to 7-week-old male db/db mice (type 2 diabetes model animal, C57/BLKS/J-db/db, Korea Research Institute of Bioscience and Biotechnology). Thereafter, blood glucose was measured once a week. At this time, after oral administration, blood glucose was measured after fasting for 6 hours.

[2] = molecular target: T1, protein tyrosine phosphatase-1B (PTP-1B) (Homo sapiens, UniProt P18031); experiment: PTP-1B inhibitory activity, enzyme activity measured spectroscopically with pNPP substrate; assay type: biochemical
T1 construct: purchased Bioneer, Korea
T1 sequence (P18031 1-435): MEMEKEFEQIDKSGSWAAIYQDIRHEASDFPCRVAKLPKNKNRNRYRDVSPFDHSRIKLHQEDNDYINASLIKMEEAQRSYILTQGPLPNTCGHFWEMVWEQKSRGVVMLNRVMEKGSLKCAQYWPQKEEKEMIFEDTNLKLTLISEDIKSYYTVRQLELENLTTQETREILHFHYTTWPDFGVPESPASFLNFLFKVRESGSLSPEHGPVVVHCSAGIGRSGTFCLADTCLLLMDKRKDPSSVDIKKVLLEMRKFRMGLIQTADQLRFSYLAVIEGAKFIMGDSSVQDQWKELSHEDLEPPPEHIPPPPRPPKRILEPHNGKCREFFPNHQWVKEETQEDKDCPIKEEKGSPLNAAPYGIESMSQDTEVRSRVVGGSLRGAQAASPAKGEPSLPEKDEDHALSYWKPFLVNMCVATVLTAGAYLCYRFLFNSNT
Description: In order to analyze protein tyrosine phosphatase-1B (PTP-1B) inhibitory activity, enzyme activity was measured spectroscopically.
Specifically, to 0.5 μg/mL of PTP-1B (Bioneer, Korea), PTP-1B buffer (50 mM Bis-tris buffer, pH 6.5, 1 mM EDTA, 1 mM DTT), dimethyl lobamide (M11A7) (0, 0.4, 0.8, 1.6, 3.12, 6.25, 12.5, 25 nM) and the substrate pNPP (para Nitrophenyl phosphate, Sigma, USA) were added and reacted at room temperature for 30 minutes. Then, 10 N NaOH was added thereto, followed by reaction at room temperature for 5 minutes to terminate the reaction between PTP-1B, dimethyl lobamide and the substrate. Thereafter, the absorbance was measured at 405 nm.

[3] = Body weight after oral administration in diabetic disease model animals; assay type: in vivo; details: db/db mice; for change in body weight compared to the control: oral administration
Description: To 7-week-old male db/db mice (type 2 diabetes model animal, C57/BLKS/J-db/db, Korea Research Institute of Bioscience and Biotechnology), 200 μl of PBS as a control and 50 mg/kg of dimethyl lobamide as an experimental group were orally administered daily. After administration, in order to investigate the change in body weight, the compound (dimethyl-lobamide) was orally administered twice a week at a fixed time, and then the body weight was measured using an animal scale.

[4] = molecular target: T1, protein tyrosine phosphatase-1B (PTP-1B); details: comparison compounds; lobarstin from Korean Patent Registration No. 10-1481141; read-out: IC50 of PTP-1B inhibitory activity, comparison value; cited from earlier work

| SMILES | average blood glucose on day 0 ([1]; db/db mice, 50 mg/kg oral daily, after fasting 6 hours, day 0) [mg/dL] | average blood glucose on day 7 ([1]; db/db mice, 50 mg/kg oral daily, after fasting 6 hours, day 7) [mg/dL] | average blood glucose on day 14 ([1]; db/db mice, 50 mg/kg oral daily, after fasting 6 hours, day 14) [mg/dL] | increase in blood glucose versus control ([1]; db/db mice, 50 mg/kg oral, day 0 to 14) | antidiabetic effects by oral administration [1] | PTP-1B inhibition rate ([2]; 0-25 nM) | IC50 ([2]; 0.5 μg/mL PTP-1B, pNPP, room temperature 30 minutes, absorbance 405 nm) [nM] | average body weight on day 0 ([3]; 50 mg/kg oral, day 0) [g] | average body weight on day 7 ([3]; 50 mg/kg oral, day 7) [g] | average body weight on day 14 ([3]; 50 mg/kg oral, day 14) [g] | change in body weight compared to the control [3] | change in body weight compared to the control ([3]; listed as dimethyl-lobamide) | IC50 [4] [nM] |
| --- | --- | --- | --- | --- | --- | --- | --- | --- | --- | --- | --- | --- | --- |
| CCCCCc1c(Oc2cc(OC)cc(C(=O)CCCC)c2C(=O)N(C)C)c(O)cc(O)c1C(=O)O [dimethyl lobamide] | 193 | 194 | 268 | lower increase in blood glucose than the control | could have the antidiabetic effects by oral administration | increased in a concentration-dependent manner | 2.16 | 30.95 | 31.78 | 34.86 | body weight reducing effects were demonstrated | no significant change in body weight | – |
| CCC/C=C1/OC(=O)c2c(Oc3c(O)cc(O)c(C(=O)O)c3CCCCC)cc(OC)cc21 [lobarstin, reference compound] | – | – | – | – | no antidiabetic effects by oral administration | – | – | – | – | – | – | – | 154 |
